The compounds below were run against T1, MLK-7 (Homo sapiens, UniProt Q9NYL2) (assay: In vitro assay of purified MLK-7 kinase activity (33P transfer from ATP to myelin basic protein)). Conditions: recombinant GST-tagged MLK-7 at 1 nm, 30 uM ATP, 5 uM MBP substrate, 2 hours room temperature; read-out: MLK7 IC50.
T1 construct: GST; His tag; made in house; host or cells: Sf9 insect cells (baculovirus, pVL1392)
Format: biochemical
Summary of the method: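 GST/His-tagged MLK-7 from Sf9 (baculovirus), 1 nM, with 5 uM MBP, 30 uM ATP plus 33P, 5 mM MgCl2, 2 mM DTT, 4% DMSO in 44 mM HEPES pH 7.4; 2 h at room temperature, stopped with phosphoric acid. Filter-bound 33P counted; IC50 for reduced phosphate transfer, Ki via Cheng-Prusoff.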

T1 sequence (Q9NYL2 1-455 isoform Q9NYL2-2): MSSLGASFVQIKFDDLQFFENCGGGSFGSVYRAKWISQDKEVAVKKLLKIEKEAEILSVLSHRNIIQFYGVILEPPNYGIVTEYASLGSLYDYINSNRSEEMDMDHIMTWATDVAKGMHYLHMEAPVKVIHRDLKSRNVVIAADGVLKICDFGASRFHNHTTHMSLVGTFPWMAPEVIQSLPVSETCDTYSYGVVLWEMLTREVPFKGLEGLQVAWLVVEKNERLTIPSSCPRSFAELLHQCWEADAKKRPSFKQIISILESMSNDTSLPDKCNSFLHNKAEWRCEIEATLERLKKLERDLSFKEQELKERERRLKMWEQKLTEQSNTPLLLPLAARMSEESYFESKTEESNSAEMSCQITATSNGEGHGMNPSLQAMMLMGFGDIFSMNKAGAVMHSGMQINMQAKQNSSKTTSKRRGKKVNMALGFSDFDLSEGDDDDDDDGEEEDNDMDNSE

IC50	SMILES
≤ 0.1 µM	c1ccc(-c2nn3c(c2-c2ccnc4cc(-c5ccc(OCCN6CCCCC6)cc5)ccc24)CCC3)nc1 [Example 110, 7-[4-(2-Piperidin-1-yl-ethoxy)phenyl]-4-(2-Pyridin-2-yl-5,6-dihydro-4H-pyrrolo[1,2-b]pyrazol-3-yl)quinoline Ditrifluoroacetic Acid]
≤ 0.1 µM	c1ccc(-c2nn3c(c2-c2ccnc4cc(-c5ccc(OCCN6CCCC6)cc5)ccc24)CCC3)nc1 [Example 111, 4-(2-Pyridin-2-yl-5,6-dihydro-4H-pyrrolo[1,2-b]pyrazol-3-yl)-7-[4-(2-pyrrolidin-1-yl-ethoxy)phenyl] quinoline Ditrifluoroacetic Acid]
≤ 0.1 µM	c1ccc(-c2nn3c(c2-c2ccnc4cc(-c5ccc(OCCCN6CCCCC6)cc5)ccc24)CCC3)nc1 [Example 112, 7-[4-(3-Piperdin-1-yl-propoxy)phenyl]-4-(2-Pyridin-2-yl-5,6-dihydro-4H-pyrrolo[1,2-b]pyrazol-3-yl)quinoline Ditrifluoroacetic Acid]
≤ 0.1 µM	CN(C)CCCOc1ccc(-c2ccc3c(-c4c(-c5ccccn5)nn5c4CCC5)ccnc3c2)cc1 [Example 113, Dimethyl-(3-{4-[4-(2-Pyridin-2-yl-5,6-dihydro-4H-pyrrolo[1,2-b]pyrazol-3-yl)quinolin-7-yl]phenoxy}propyl)amine Ditrifluoroacetic Acid]
≤ 0.1 µM	c1ccc(-c2nn3c(c2-c2ccnc4cc(-c5ccc(OCCCN6CCOCC6)cc5)ccc24)CCC3)nc1 [Example 114, 7-[4-(3-Morpholin-4-yl-propoxy)phenyl]-4-(2-Pyridin-2-yl-5,6-dihydro-4H-pyrrolo[1,2-b]pyrazol-3-yl)quinoline Ditrifluoroacetic Acid]
≤ 0.1 µM	c1ccc(-c2nn3c(c2-c2ccnc4cc(-c5ccc(OCCCN6CCCC6)cc5)ccc24)CCC3)nc1 [Example 115, 4-(2-Pyridin-2-yl-5,6-dihydro-4H-pyrrolo[1,2-b]pyrazol-3-yl)-7-[4-(3-pyrrolidin-1-yl-propoxy)phenyl] quinoline Ditrifluoroacetic Acid]
≤ 0.1 µM	NC(=O)COc1ccc(-c2ccc3c(-c4c(-c5ccccn5)nn5c4CCC5)ccnc3c2)cc1 [Example 117, 2-{4-[4-(2-Pyridin-2-yl-5,6-dihydro-4H-pyrrolo[1,2-b]pyrazol-3-yl)quinolin-7-yl]phenoxy}acetamide Trifluoroacetic Acid]
≤ 0.1 µM	FCCOc1ccc(-c2ccc3c(-c4c(-c5ccccn5)nn5c4CCC5)ccnc3c2)cc1 [Example 119, 7-[4-(2-Fluoroethoxy)phenyl]-4-(2-pyridin-2-yl-5,6-dihydro-4H-pyrrolo[1,2-b]pyrazol-3-yl)quinoline Trifluoroacetic Acid]
≤ 0.1 µM	FC(F)(F)COc1ccc(-c2ccc3c(-c4c(-c5ccccn5)nn5c4CCC5)ccnc3c2)cc1 [Example 120, 4-(2-Pyridin-2-yl-5,6-dihydro-4H-pyrrolo[1,2-b]pyrazol-3-yl)-7-[4-(2,2,2-trifluoroethoxy)phenyl)quinoline Trifluoroacetic Acid]
≤ 0.1 µM	CC(C)(C)OC(=O)NCCNC(=O)c1ccc(-c2ccc3c(-c4c(-c5ccccn5)nn5c4CCC5)ccnc3c2)cc1 [Example 121, (2-{4-[4-(2-Pyridin-2-yl-5,6-dihydro-4H-pyrrolo[1,2-b]pyrazol-3-yl)-quinolin-7-yl]-benzoylamino}-ethyl)-carbamic Acid tert-Butyl Ester]
≤ 0.1 µM	O=C(c1ccc(-c2ccc3c(-c4c(-c5ccccn5)nn5c4CCC5)ccnc3c2)cc1)N1CCCCC1 [Example 122, Piperidin-1-yl-{4-[4-(2-pyridin-2-yl-5,6-dihydro-4H-pyrrolo[1,2-b]pyrazol-3-yl)-quinolin-7-yl]-phenyl}-methanone]
≤ 0.1 µM	O=C(c1ccc(-c2ccc3c(-c4c(-c5ccccn5)nn5c4CCC5)ccnc3c2)cc1)N1CCSCC1 [Example 123, {4-[4-(2-Pyridin-2-yl-5,6-dihydro-4H-pyrrolo[1,2-b]pyrazol-3-yl)-quinolin-7-yl]-phenyl}-thiomorpholin-4-yl-methanone]
≤ 0.1 µM	O=C(c1ccc(-c2ccc3c(-c4c(-c5ccccn5)nn5c4CCC5)ccnc3c2)cc1)N1CCOCC1 [Example 124, Morpholin-4-yl-{4-[4-(2-pyridin-2-yl-5,6-dihydro-4H-pyrrolo[1,2-b]pyrazol-3-yl)-quinolin-7-yl]-phenyl}-methanone]
≤ 0.1 µM	NC(=O)CNC(=O)c1ccc(-c2ccc3c(-c4c(-c5ccccn5)nn5c4CCC5)ccnc3c2)cc1 [Example 125, N-Carbamoylmethyl-4-[4-(2-pyridin-2-yl-5,6-dihydro-4H-pyrrolo[1,2-b]pyrazol-3-yl)-quinolin-7-yl]-benzamide]
≤ 0.1 µM	CC(C)NCCNC(=O)c1ccc(-c2ccc3c(-c4c(-c5ccccn5)nn5c4CCC5)ccnc3c2)cc1 [Example 126, N-(2-Isopropylamino-ethyl)-4-[4-(2-pyridin-2-yl-5,6-dihydro-4H-pyrrolo[1,2-b]pyrazol-3-yl)-quinolin-7-yl]-benzamide]
≤ 0.1 µM	CCOC(=O)CCNC(=O)c1ccc(-c2ccc3c(-c4c(-c5ccccn5)nn5c4CCC5)ccnc3c2)cc1 [Example 128, 3-{4-[4-(2-Pyridin-2-yl-5,6-dihydro-4H-pyrrolo[1,2-b]pyrazol-3-yl)-quinolin-7-yl]-benzoylamino}-propionic Acid Ethyl Ester]
≤ 0.1 µM	CC(C)(C)OC(=O)N1CCCC(NC(=O)c2ccc(-c3ccc4c(-c5c(-c6ccccn6)nn6c5CCC6)ccnc4c3)cc2)C1 (stereo not shown) [Example 130, 3-{4-[4-(2-Pyridin-2-yl-5,6-dihydro-4H-pyrrolo[1,2-b]pyrazol-3-yl)-quinolin-7-yl]-benzoylamino}-piperidine-1-carboxylic Acid tert-Butyl Ester]
≤ 0.1 µM	O=C(NCCN1CCOCC1)c1ccc(-c2ccc3c(-c4c(-c5ccccn5)nn5c4CCC5)ccnc3c2)cc1 [Example 132, N-(2-Morpholin-4-yl-ethyl)-4-[4-(2-pyridin-2-yl-5,6-dihydro-4H-pyrrolo[1,2-b]pyrazol-3-yl)-quinolin-7-yl]-benzamide]
≤ 0.1 µM	O=C(c1ccc(-c2ccc3c(-c4c(-c5ccccn5)nn5c4CCC5)ccnc3c2)cc1)N1CCS(=O)(=O)CC1 [Example 133, (1,1-Dioxo-1λ^6-thiomorpholin-4-yl)-{4-[4-(2-pyridin-2-yl-5,6-dihydro-4H-pyrrolo[1,2-b]pyrazol-3-yl)-quinolin-7-yl]-phenyl}-methanone]
≤ 1 µM	CSC[C@@H](NC(=O)c1ccc(-c2ccc3c(-c4c(-c5ccccn5)nn5c4CCC5)ccnc3c2)cc1)C(=O)OC(C)(C)C [Example 134, 3-Methylsulfanyl-2(S)-{4-[4-(2-pyridin-2-yl-5,6-dihydro-4H-pyrrolo[1,2-b]pyrazol-3-yl)-quinolin-7-yl]-benzoylamino}-propionic Acid tert-Butyl Ester]

SMILES	IC50
COCCOc1ccc(-c2ccc3c(-c4c(-c5ccccn5)nn5c4CCC5)ccnc3c2)cc1 [Example 118]	≤ 0.1 µM
CC(C)(C)OC(=O)NCCCC[C@H](NC(=O)c1ccc(-c2ccc3c(-c4c(-c5ccccn5)nn5c4CCC5)ccnc3c2)cc1)C(=O)OC(C)(C)C [Example 131, 6-tert-Butoxycarbonylamino-2(S)-{4-[4-(2-pyridin-2-yl-5,6-dihydro-4H-pyrrolo[1,2-b]pyrazol-3-yl)-quinolin-7-yl]-benzoylamino}-hexanoic acid tert-butyl ester]	≤ 1 µM

From patent US7511065B2, “Mixed lineage kinase modulators” (Eli Lilly and Company, priority 2002, dated 2009)
